ChEMBL document CHEMBL1201862, “PubChem BioAssay data set” (2004)
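Where inhibition never reached the appropriate level, the endpoint shown equals the highest concentration tested. Otherwise, values were interpolated linearly from a five-concentration, 48-hour dose response in 96-well plates. GI50 = concentration required for 50% inhibition of growth.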 Active and inactive are the calls of the source. Cut-off read from the data, not from the text of the source: active = GI50 up to about 1.1 µM and inactive = higher.

How the values were obtained:
Assay in all cases: DTP human tumour cell line panel, 48 h
HCT-15 = tested on: HCT-15
UACC-257 = tested on: UACC-257
UO-31 = tested on: UO-31
OVCAR-3 = tested on: OVCAR-3
SW-620 = tested on: SW-620
SK-OV-3 = tested on: SK-OV-3
MDA-MB-435 = tested on: MDA-MB-435
786-0 = tested on: 786-0
T47D = tested on: T47D
A549 = tested on: A549
HT-29 = tested on: HT-29
HL-60 = tested on: HL-60
KM12 = tested on: KM12
SK-MEL-5 = tested on: SK-MEL-5
SNB-75 = tested on: SNB-75
CAKI-1 = tested on: CAKI-1
COLO 205 = tested on: COLO 205
SN12C = tested on: SN12C
OVCAR-5 = tested on: OVCAR-5
RPMI-8226 = tested on: RPMI-8226
HCT-116 = tested on: HCT-116
RXF 393 = tested on: RXF 393
MDA-N = tested on: MDA-N
IGROV-1 = tested on: IGROV-1
SF-268 = tested on: SF-268
UACC-62 = tested on: UACC-62
MOLT-4 = tested on: MOLT-4
BT-549 = tested on: BT-549
SNB-19 = tested on: SNB-19
SF-539 = tested on: SF-539
MDA-MB-231 = tested on: MDA-MB-231
TK-10 = tested on: TK-10
HOP-92 = tested on: HOP-92
K562 = tested on: K562
M14 = tested on: M14
EKVX = tested on: EKVX
NCI-H23 = tested on: NCI-H23
Hs-578T = tested on: Hs-578T
Malme-3M = tested on: Malme-3M
MCF7 = tested on: MCF7
HOP-62 = tested on: HOP-62
DU-145 = tested on: DU-145
A498 = tested on: A498
NCI/ADR-RES = tested on: NCI/ADR-RES
OVCAR-4 = tested on: OVCAR-4
SK-MEL-2 = tested on: SK-MEL-2
HCC 2998 = tested on: HCC 2998
ACHN = tested on: ACHN
NCI-H460 = tested on: NCI-H460
NCI-H522 = tested on: NCI-H522
OVCAR-8 = tested on: OVCAR-8
SF-295 = tested on: SF-295
PC-3 = tested on: PC-3
LOX IMVI = tested on: LOX IMVI
NCI-H226 = tested on: NCI-H226
U-251 = tested on: U-251
CCRF-CEM = tested on: CCRF-CEM
SK-MEL-28 = tested on: SK-MEL-28
SR = tested on: SR

`Cn1c(=S)[nH]c2sc3c(c2c1=O)CCSC3` was tested, and the GI50 (HCT-15) was 31 µM, the GI50 (UACC-257) was 41.8 µM (inactive) and the GI50 (UO-31) was 11.7 µM (inactive). The GI50 (OVCAR-3) was 24.8 µM (inactive), the GI50 (SW-620) was 35.7 µM (inactive) and the GI50 (SK-OV-3) was 90.8 µM (inactive). For the same molecule, the GI50 (MDA-MB-435) was 49.1 µM (inactive), the GI50 (786-0) was 76.6 µM (inactive) and the GI50 (T47D) was 25.1 µM (inactive). The GI50 (A549) was 43.1 µM (inactive), the GI50 (HT-29) was 29.9 µM (inactive) and the GI50 (HL-60) was 16.7 µM (inactive). The GI50 (KM12) was 32.1 µM (inactive), the GI50 (SK-MEL-5) was 36 µM (inactive) and the GI50 (SNB-75) was > 100 µM (inactive). For the same molecule, the GI50 (CAKI-1) was 44.8 µM (inactive), the GI50 (COLO 205) was 47.1 µM (inactive) and the GI50 (SN12C) was 40 µM (inactive). The GI50 (OVCAR-5) was 53.7 µM (inactive), the GI50 (RPMI-8226) was 32.4 µM (inactive) and the GI50 (HCT-116) was 34.8 µM (inactive). For the same molecule, the GI50 (RXF 393) was 3.05 µM (inactive), the GI50 (MDA-N) was 54.7 µM (inactive) and the GI50 (IGROV-1) was 23.9 µM (inactive). The GI50 (SF-268) was 26.2 µM (inactive), the GI50 (UACC-62) was 24.8 µM (inactive) and the GI50 (MOLT-4) was 33.8 µM (inactive). For the same molecule, the GI50 (BT-549) was 32.4 µM (inactive), the GI50 (SNB-19) was 47.4 µM (inactive) and the GI50 (SF-539) was 54.1 µM (inactive). For the same molecule, the GI50 (MDA-MB-231) was > 100 µM (inactive), the GI50 (TK-10) was 80.5 µM (inactive) and the GI50 (HOP-92) was 23.9 µM (inactive). The GI50 (K562) was 42.9 µM (inactive), the GI50 (M14) was 35.2 µM (inactive) and the GI50 (EKVX) was 20.8 µM (inactive). For the same molecule, the GI50 (NCI-H23) was 36.9 µM (inactive), the GI50 (Hs-578T) was > 100 µM (inactive) and the GI50 (Malme-3M) was 58.2 µM (inactive). For the same molecule, the GI50 (MCF7) was 44.3 µM (inactive), the GI50 (HOP-62) was 25.9 µM (inactive) and the GI50 (DU-145) was 24.3 µM (inactive). The GI50 (A498) was 31.6 µM (inactive), the GI50 (NCI/ADR-RES) was 31.3 µM (inactive) and the GI50 (OVCAR-4) was 43 µM (inactive). For the same molecule, the GI50 (SK-MEL-2) was > 100 µM (inactive), the GI50 (HCC 2998) was 21.8 µM (inactive) and the GI50 (ACHN) was 42.9 µM (inactive). The GI50 (NCI-H460) was 35.8 µM (inactive), the GI50 (NCI-H522) was 36.9 µM (inactive) and the GI50 (OVCAR-8) was 39.8 µM (inactive). The GI50 (SF-295) was 29.9 µM (inactive), the GI50 (PC-3) was 44.2 µM (inactive) and the GI50 (LOX IMVI) was 36.6 µM (inactive). For the same molecule, the GI50 (NCI-H226) was 22 µM (inactive) and the GI50 (U-251) was 40.5 µM (inactive).

With `S=C1CC(c2ccccc2)Sc2ccccc2N1` (stereo not given) the GI50 (HCT-15) was 93.3 µM, the GI50 (CCRF-CEM) was > 100 µM (inactive) and the GI50 (UACC-257) was > 100 µM (inactive). The GI50 (UO-31) was > 100 µM (inactive), the GI50 (OVCAR-3) was 45.5 µM (inactive) and the GI50 (SK-OV-3) was 41.6 µM (inactive). The GI50 (MDA-MB-435) was 61.1 µM (inactive), the GI50 (786-0) was > 10 µM (inactive) and the GI50 (T47D) was > 100 µM (inactive). The GI50 (A549) was > 10 µM (inactive), the GI50 (HT-29) was > 100 µM (inactive) and the GI50 (HL-60) was > 100 µM (inactive). For the same molecule, the GI50 (KM12) was 95.3 µM (inactive), the GI50 (SK-MEL-5) was 66.8 µM (inactive) and the GI50 (SNB-75) was 20.9 µM (inactive). For the same molecule, the GI50 (CAKI-1) was 55 µM (inactive), the GI50 (COLO 205) was > 100 µM (inactive) and the GI50 (SN12C) was 97.7 µM (inactive). For the same molecule, the GI50 (OVCAR-5) was 76.6 µM (inactive), the GI50 (RPMI-8226) was > 100 µM (inactive) and the GI50 (SK-MEL-28) was 51.4 µM (inactive). The GI50 (HCT-116) was 37 µM (inactive), the GI50 (RXF 393) was 28.4 µM (inactive) and the GI50 (MDA-N) was 54 µM (inactive). For the same molecule, the GI50 (IGROV-1) was > 100 µM (inactive), the GI50 (SF-268) was 38.8 µM (inactive) and the GI50 (UACC-62) was 51.1 µM (inactive). For the same molecule, the GI50 (MOLT-4) was 5.22 µM (inactive), the GI50 (BT-549) was 53 µM (inactive) and the GI50 (SNB-19) was 35.6 µM (inactive). For the same molecule, the GI50 (MDA-MB-231) was 45.2 µM (inactive), the GI50 (TK-10) was 49.3 µM (inactive) and the GI50 (K562) was > 100 µM (inactive). For the same molecule, the GI50 (M14) was 45 µM (inactive), the GI50 (EKVX) was 72.8 µM (inactive) and the GI50 (NCI-H23) was 81.8 µM (inactive). The GI50 (Hs-578T) was 25.5 µM (inactive), the GI50 (Malme-3M) was 67.1 µM (inactive) and the GI50 (MCF7) was 44.4 µM (inactive). The GI50 (HOP-62) was 22.8 µM (inactive), the GI50 (DU-145) was 87.1 µM (inactive) and the GI50 (NCI/ADR-RES) was 68.9 µM (inactive). The GI50 (OVCAR-4) was 49.2 µM (inactive), the GI50 (ACHN) was 69 µM (inactive) and the GI50 (SR) was > 100 µM (inactive). For the same molecule, the GI50 (NCI-H460) was 63.1 µM (inactive), the GI50 (NCI-H522) was 31.3 µM (inactive) and the GI50 (OVCAR-8) was > 100 µM (inactive). For the same molecule, the GI50 (SF-295) was > 100 µM (inactive), the GI50 (PC-3) was 6.85 µM (inactive) and the GI50 (LOX IMVI) was > 100 µM (inactive). The GI50 (NCI-H226) was > 100 µM (inactive) and the GI50 (U-251) was 44.2 µM (inactive).

With `C/C=C/C(O)P1(=O)N(Cc2ccccc2)[C@@H]2CCCC[C@H]2N1Cc1ccccc1` (stereo not given in full) the GI50 (HCT-15) was over 25 µM, the GI50 (CCRF-CEM) was > 25 µM (inactive) and the GI50 (UACC-257) was > 25 µM (inactive). The GI50 (UO-31) was > 25 µM (inactive), the GI50 (OVCAR-3) was > 25 µM (inactive) and the GI50 (SW-620) was > 25 µM (inactive). For the same molecule, the GI50 (SK-OV-3) was > 25 µM (inactive), the GI50 (MDA-MB-435) was > 25 µM (inactive) and the GI50 (786-0) was > 25 µM (inactive). For the same molecule, the GI50 (T47D) was > 25 µM (inactive), the GI50 (A549) was > 25 µM (inactive) and the GI50 (HT-29) was > 25 µM (inactive). For the same molecule, the GI50 (HL-60) was > 25 µM (inactive), the GI50 (KM12) was > 25 µM (inactive) and the GI50 (SK-MEL-5) was > 25 µM (inactive). For the same molecule, the GI50 (SNB-75) was > 25 µM (inactive), the GI50 (CAKI-1) was > 25 µM (inactive) and the GI50 (COLO 205) was > 25 µM (inactive). The GI50 (SN12C) was > 25 µM (inactive), the GI50 (OVCAR-5) was > 25 µM (inactive) and the GI50 (SK-MEL-28) was > 25 µM (inactive). The GI50 (HCT-116) was > 25 µM (inactive), the GI50 (RXF 393) was > 25 µM (inactive) and the GI50 (MDA-N) was > 25 µM (inactive). The GI50 (IGROV-1) was > 25 µM (inactive), the GI50 (SF-268) was > 25 µM (inactive) and the GI50 (UACC-62) was > 25 µM (inactive). For the same molecule, the GI50 (MOLT-4) was 19.9 µM (inactive), the GI50 (BT-549) was > 25 µM (inactive) and the GI50 (SNB-19) was > 25 µM (inactive). The GI50 (SF-539) was > 25 µM (inactive), the GI50 (MDA-MB-231) was > 25 µM (inactive) and the GI50 (TK-10) was > 25 µM (inactive). The GI50 (K562) was > 25 µM (inactive), the GI50 (M14) was > 25 µM (inactive) and the GI50 (EKVX) was > 25 µM (inactive). For the same molecule, the GI50 (NCI-H23) was > 25 µM (inactive), the GI50 (Hs-578T) was > 25 µM (inactive) and the GI50 (Malme-3M) was > 25 µM (inactive). The GI50 (MCF7) was > 25 µM (inactive), the GI50 (HOP-62) was > 25 µM (inactive) and the GI50 (DU-145) was > 25 µM (inactive). For the same molecule, the GI50 (NCI/ADR-RES) was > 25 µM (inactive), the GI50 (OVCAR-4) was > 25 µM (inactive) and the GI50 (SK-MEL-2) was > 25 µM (inactive). The GI50 (HCC 2998) was > 25 µM (inactive), the GI50 (ACHN) was > 25 µM (inactive) and the GI50 (SR) was > 25 µM (inactive). The GI50 (NCI-H460) was > 25 µM (inactive), the GI50 (NCI-H522) was > 25 µM (inactive) and the GI50 (OVCAR-8) was > 25 µM (inactive). For the same molecule, the GI50 (SF-295) was > 25 µM (inactive), the GI50 (PC-3) was > 25 µM (inactive) and the GI50 (LOX IMVI) was > 25 µM (inactive). For the same molecule, the GI50 (NCI-H226) was > 25 µM (inactive) and the GI50 (U-251) was > 25 µM (inactive).
